[αh] = substituted alpha-L-bicyclic nucleoside, publication subscript αh; [αj] = substituted alpha-L-bicyclic nucleoside, publication subscript αj; [αl] = substituted alpha-L-bicyclic nucleoside, publication subscript αl; [αm] = substituted alpha-L-bicyclic nucleoside, publication subscript αm; [αg] = code of the source, not defined here; d = 2'-deoxy (DNA)
Experiment: 12mer Tm study
Format: binding
Settings: for Tm (° C.): all linkages phosphodiester; for ΔTm/mod (° C.): change in Tm per modification
Source text: All internucleoside linkages are phosphodiester and all nucleosides not followed by a subscript are 2′-deoxyribonucleosides. The nucleosides followed by a subscript are defined below.

Substance | Tm (° C.) | ΔTm/mod (° C.)
07/449247: 12mer GCGTTUαhTαhTTGCT, all linkages phosphodiester (GCGTTUTTTGCT; sugars from the 5' end d5 [αh]2 d5, all phosphodiester, methylation of C not given here) | 53.7 °C | +4.1 °C
07/449245: 12mer GCGTTUαjTαjTTGCT, all linkages phosphodiester (GCGTTUTTTGCT; sugars from the 5' end d5 [αj]2 d5, all phosphodiester, methylation of C not given here) | 47.1 °C | +1.0 °C
07/449244: 12mer GCGTTUαjTTTGCT, all linkages phosphodiester (GCGTTUTTTGCT; sugars from the 5' end d5 [αj]1 d6, all phosphodiester, methylation of C not given here) | 46.7 °C | +1.1 °C
07/454309: 12mer GCGTTUαgTTTGCT, all linkages phosphodiester (GCGTTUTTTGCT; sugars from the 5' end d5 [αg]1 d6, all phosphodiester, methylation of C not given here) | 49.7 °C | +4.2 °C
07/454308: 12mer GCGTTUαmTαmTTGCT, all linkages phosphodiester (GCGTTUTTTGCT; sugars from the 5' end d5 [αm]2 d5, all phosphodiester, methylation of C not given here) | 55.2 °C | +4.8 °C
07/454306: 12mer GCGTTUαlTαlTTGCT, all linkages phosphodiester (GCGTTUTTTGCT; sugars from the 5' end d5 [αl]2 d5, all phosphodiester, methylation of C not given here) [reference compound] | 45.6 °C | +4.6 °C
07/438704: 12mer GCGTTUTTTGCT, all 2′-deoxyribonucleosides, all linkages phosphodiester (DNA, all phosphodiester, methylation of C not given here) [reference compound] | 46.7 °C | +0.0 °C
07/438711: 12mer GCGTTUαlTTTGCT, all linkages phosphodiester (GCGTTUTTTGCT; sugars from the 5' end d5 [αl]1 d6, all phosphodiester, methylation of C not given here) [reference compound] | 50.2 °C | +4.6 °C
07/449246: 12mer GCGTTUαhTTTGCT, all linkages phosphodiester (GCGTTUTTTGCT; sugars from the 5' end d5 [αh]1 d6, all phosphodiester, methylation of C not given here) | 49.0 °C | +3.4 °C
07/454307: 12mer GCGTTUαmTTTGCT, all linkages phosphodiester (GCGTTUTTTGCT; sugars from the 5' end d5 [αm]1 d6, all phosphodiester, methylation of C not given here) | 51.3 °C | +5.5 °C
07/454310: 12mer GCGTTUαgTαgTTGCT, all linkages phosphodiester (GCGTTUTTTGCT; sugars from the 5' end d5 [αg]2 d5, all phosphodiester, methylation of C not given here) | 53.6 °C | +4.2 °C
